Experiments:
SRA737 = compound: N#Cc1cnc(Nc2cc(NC[C@H]3CNCCO3)c(C(F)(F)F)cn2)cn1 [SRA737]; details: max 10 µM
Method in brief: (§1)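 Cancer cell lines were plated in 1536-well plates in 7.5 μl of DMEM/F12 or RPMI with 10% FBS and kept 24 hours at 37°C and 5% CO2 before 72 hours of dosing, with final DMSO typically 0.2%. CellTiter-Glo 2.0 luminescence measured viability, scaled between blank-well and DMSO-well means. Dose responses were fitted to a two-parameter logistic curve with a non-linear mixed effects model. This fit gives the single-agent IC50.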

SN-38 = compound: CCc1c2c(nc3ccc(O)cc13)-c1cc3c(c(=O)n1C2)COC(=O)[C@]3(O)CC [SN-38]; details: max 0.3 µM
Method in brief: as §1

Doxorubicin = compound: COc1cccc2c1C(=O)c1c(O)c3c(c(O)c1C2=O)C[C@@](O)(C(=O)CO)C[C@@H]3O[C@H]1C[C@H](N)[C@H](O)[C@H](C)O1 [Doxorubicin]; details: max 1 µM
Method in brief: as §1

AZD4320 = compound: CN(CC[C@H](CSC1=CC=CC=C1)NC2=C(C=C(C=C2)S(=O)(=O)NC(=O)C3=CC=C(C=C3)N4CCC(CC4)[C@H](C5=CC=CC=C5C6=CC=C(C=C6)Cl)O)S(=O)(=O)C(F)(F)F)CCO [AZD4320]; details: max 1 µM
Method in brief: as §1

Taselisib = compound: Cc1nc(-c2cn3c(n2)-c2ccc(-c4cnn(C(C)(C)C(N)=O)c4)cc2OCC3)n(C(C)C)n1 [Taselisib]; details: max 10 µM
Method in brief: as §1

Olaparib = compound: O=C(c1cc(Cc2n[nH]c(=O)c3ccccc23)ccc1F)N1CCN(C(=O)C2CC2)CC1 [Olaparib]; details: max 10 µM
Method in brief: as §1

Palbociclib = compound: CC(=O)c1c(C)c2cnc(Nc3ccc(N4CCNCC4)cn3)nc2n(C2CCCC2)c1=O [Palbociclib]; details: max 10 µM
Method in brief: as §1

AZD8186 = compound: C[C@@H](Nc1cc(F)cc(F)c1)c1cc(C(=O)N(C)C)cc2c(=O)cc(N3CCOCC3)oc12 [AZD8186]; details: max 10 µM
Method in brief: as §1

Prexasertib = compound: COc1cccc(OCCCN)c1-c1cc(Nc2cnc(C#N)cn2)n[nH]1 [Prexasertib]; details: max 1 µM
Method in brief: as §1

AZD0156 = compound: CN(C)CCCOc1ccc(-c2ccc3ncc4c(c3c2)n(C2CCOCC2)c(=O)n4C)cn1 [AZD0156]
Method in brief: as §1

5-Fluorouracil = compound: O=c1[nH]cc(F)c(=O)[nH]1 [5-Fluorouracil]; details: max 20 µM
Method in brief: as §1

AZD1390 = compound: CC(C)n1c(=O)n(C)c2cnc3cc(F)c(-c4ccc(OCCCN5CCCCC5)nc4)cc3c21 [AZD1390]; details: max 0.3 µM
Method in brief: as §1

AZD5991 = compound: Cc1c2c(nn1C)CSCc1cc(n(C)n1)CSc1cc(c3ccccc3c1)OCCCc1c(C(=O)O)n(C)c3c-2c(Cl)ccc13 [AZD5991]; details: max 1 µM
Method in brief: as §1

AZD5153 = compound: COc1nnc2ccc(N3CCC(c4ccc(OCCN5CCN(C)C(=O)[C@H]5C)cc4)CC3)nn12 [AZD5153]; details: max 1 µM
Method in brief: as §1

Dasatinib = compound: CC1=C(C(=CC=C1)Cl)NC(=O)C2=CN=C(S2)NC3=CC(=NC(=N3)C)N4CCN(CC4)CCO [Dasatinib]; details: max 2 µM
Method in brief: as §1

AZD2811 = compound: CCN(CCO)CCCOc1ccc2c(Nc3cc(CC(=O)Nc4cccc(F)c4)[nH]n3)ncnc2c1 [AZD2811]; details: max 1 µM
Method in brief: as §1

SG3199 = compound: CC1=CN2[C@@H](C1)C=NC3=CC(=C(C=C3C2=O)OC)OCCCCCOC4=C(C=C5C(=C4)N=C[C@@H]6CC(=CN6C5=O)C)OC [SG3199]; details: max 0.001 µM
Method in brief: as §1

Etoposide = compound: COc1cc([C@@H]2c3cc4c(cc3[C@@H](O[C@@H]3O[C@@H]5CO[C@@H](C)O[C@H]5[C@H](O)[C@H]3O)[C@H]3COC(=O)[C@H]23)OCO4)cc(OC)c1O [Etoposide]; details: max 10 µM
Method in brief: as §1

AZD1775 = compound: C=CCn1c(=O)c2cnc(Nc3ccc(N4CCN(C)CC4)cc3)nc2n1-c1cccc(C(C)(C)O)n1 [AZD1775]
Method in brief: as §1

AZD5363 = compound: C1CN(CCC1(C(=O)N[C@@H](CCO)C2=CC=C(C=C2)Cl)N)C3=NC=NC4=C3C=CN4 [AZD5363]; details: max 10 µM
Method in brief: as §1

Lapatinib = compound: CS(=O)(=O)CCNCc1ccc(-c2ccc3ncnc(Nc4ccc(OCc5cccc(F)c5)c(Cl)c4)c3c2)o1 [Lapatinib]; details: max 10 µM
Method in brief: as §1

Venetoclax = compound: CC1(C)CCC(CN2CCN(c3ccc(C(=O)NS(=O)(=O)c4ccc(NCC5CCOCC5)c([N+](=O)[O-])c4)c(Oc4cnc5[nH]ccc5c4)c3)CC2)=C(c2ccc(Cl)cc2)C1 [Venetoclax]; details: max 1 µM
Method in brief: as §1

Gefitinib = compound: COc1cc2ncnc(Nc3ccc(F)c(Cl)c3)c2cc1OCCCN1CCOCC1 [Gefitinib]; details: max 10 µM
Method in brief: as §1

Gemcitabine = compound: Nc1ccn([C@@H]2O[C@H](CO)[C@@H](O)C2(F)F)c(=O)n1 [Gemcitabine]; details: max 0.3 µM
Method in brief: as §1

AZD6738 = compound: C[C@@H]1COCCN1C2=NC(=NC(=C2)C3(CC3)[S@](=N)(=O)C)C4=C5C=CNC5=NC=C4 [AZD6738]; details: max 10 µM
Method in brief: as §1

Alisertib = compound: COc1cc(Nc2ncc3c(n2)-c2ccc(Cl)cc2C(c2c(F)cccc2OC)=NC3)ccc1C(=O)O [Alisertib]; details: max 10 µM
Method in brief: as §1

Carboplatin = compound: C1CC(C1)(C(=O)[O-])C(=O)[O-].N.N.[Pt+2] [Carboplatin]; details: max 10 µM
Method in brief: as §1

Trametinib = compound: CC(=O)Nc1cccc(-n2c(=O)n(C3CC3)c(=O)c3c(Nc4ccc(I)cc4F)n(C)c(=O)c(C)c32)c1 [Trametinib]; details: max 1 µM
Method in brief: as §1

AZD7648 = compound: Cc1cc2ncnn2cc1Nc1ncc2c(n1)n(C1CCOCC1)c(=O)n2C [AZD7648]; details: max 10 µM
Method in brief: as §1

Savolitinib = compound: C[C@@H](c1ccc2nccn2c1)n1nnc2ncc(-c3cnn(C)c3)nc21 [Savolitinib]; details: max 1 µM
Method in brief: as §1

Crizotinib = compound: C[C@@H](Oc1cc(-c2cnn(C3CCNCC3)c2)cnc1N)c1c(Cl)ccc(F)c1Cl [Crizotinib]; details: max 10 µM
Method in brief: as §1

Paclitaxel = compound: CC(=O)O[C@H]1C(=O)[C@@]2(C)[C@H]([C@H](OC(=O)c3ccccc3)[C@]3(O)C[C@H](OC(=O)[C@H](O)[C@@H](NC(=O)c4ccccc4)c4ccccc4)C(C)=C1C3(C)C)[C@]1(OC(C)=O)CO[C@@H]1C[C@@H]2O [Paclitaxel]; details: max 3 µM
Method in brief: as §1

Selumetinib = compound: Cn1cnc2c(F)c(Nc3ccc(Br)cc3Cl)c(C(=O)NOCCO)cc21 [Selumetinib]; details: max 10 µM
Method in brief: as §1

MK-2206 = compound: NC1(c2ccc(-c3nc4ccn5c(=O)[nH]nc5c4cc3-c3ccccc3)cc2)CCC1 [MK-2206]; details: max 10 µM
Method in brief: as §1

[1] = compound: O=C(Nc1ccc2[nH]nc(-c3ccncc3)c2c1)[C@@H]1CCN(CC(=O)N2CCN(c3ccc(-c4ncccn4)cc3)CC2)C1; details: max 5 µM
Method in brief: as §1

| Cell Line | IC50, cell viability 72 h (SRA737) [µM] | IC50, cell viability 72 h (SN-38) [µM] | IC50, cell viability 72 h (Doxorubicin) [µM] | IC50, cell viability 72 h (AZD4320) [µM] | IC50, cell viability 72 h (Taselisib) [µM] | IC50, cell viability 72 h (Olaparib) [µM] | IC50, cell viability 72 h (Palbociclib) [µM] | IC50, cell viability 72 h (AZD8186) [µM] | IC50, cell viability 72 h (Prexasertib) [µM] | IC50, cell viability 72 h (AZD0156; max 3 µM) [µM] | IC50, cell viability 72 h (5-Fluorouracil) [µM] | IC50, cell viability 72 h (AZD1390) [µM] | IC50, cell viability 72 h (AZD5991) [µM] | IC50, cell viability 72 h (AZD5153) [µM] | IC50, cell viability 72 h (Dasatinib) [µM] | IC50, cell viability 72 h (AZD2811) [µM] | IC50, cell viability 72 h (SG3199) [µM] | IC50, cell viability 72 h (Etoposide) [µM] | IC50, cell viability 72 h (AZD1775; max 3 µM) [µM] | IC50, cell viability 72 h (AZD5363) [µM] | IC50, cell viability 72 h (Lapatinib) [µM] | IC50, cell viability 72 h (Venetoclax) [µM] | IC50, cell viability 72 h (Gefitinib) [µM] | IC50, cell viability 72 h (Gemcitabine) [µM] | IC50, cell viability 72 h (AZD6738) [µM] | IC50, cell viability 72 h (Alisertib) [µM] | IC50, cell viability 72 h (Carboplatin) [µM] | IC50, cell viability 72 h (Trametinib) [µM] | IC50, cell viability 72 h (AZD7648) [µM] | IC50, cell viability 72 h (Savolitinib) [µM] | IC50, cell viability 72 h (Crizotinib) [µM] | IC50, cell viability 72 h (Paclitaxel) [µM] | IC50, cell viability 72 h (Selumetinib) [µM] | IC50, cell viability 72 h (MK-2206) [µM] | IC50, cell viability 72 h [1] [µM] | IC50, cell viability 72 h (AZD0156; max 1 µM) [µM] | IC50, cell viability 72 h (AZD1775; max 1 µM) [µM] |
| --- | --- | --- | --- | --- | --- | --- | --- | --- | --- | --- | --- | --- | --- | --- | --- | --- | --- | --- | --- | --- | --- | --- | --- | --- | --- | --- | --- | --- | --- | --- | --- | --- | --- | --- | --- | --- | --- |
| NCI-H2342 (Lung Adenocarcinoma) | > 10 | > 0.3 | > 1 | > 1 | > 10 | > 10 | > 10 | > 10 | > 1 | > 3 | > 20 | > 0.3 | > 1 | > 1 | > 2 | > 1 | > 0.001 | > 10 | > 3 | > 10 | > 10 | > 1 | > 10 | > 0.3 | > 10 | > 10 | > 10 | > 1 | > 10 | > 1 | > 10 | 0.027 | > 10 | > 10 | > 5 |  |  |
| TE-8 (Esophageal Squamous Cell Carcinoma) | > 10 | 0.169 | > 1 | > 1 | 2.65 | > 10 | > 10 | > 10 | 0.0243 |  | > 20 | > 0.3 | > 1 | > 1 | 0.362 | > 1 | > 0.001 | > 10 |  | > 10 | > 10 | > 1 | > 10 | > 0.3 | 4.15 | 5.14 | > 10 | 0.633 | > 10 | > 1 | > 10 | 0.109 | > 10 | > 10 | 3.84 | > 1 | 0.503 |

Reference: the supplement of paper PMC11061612
